Assay results published in article PMC12029836, “Phytotoxicity, Cytotoxicity, and Antimicrobial Activity of Triethanolammonium Amino Acids Salts” (Molecules, 2025).
Several values for one entry are separate records, joined by “and”; a condition that tells them apart may be missing. Equal entries are not always repeated. Where two headings read alike, the source gives them in different places.

Tests used:
L929 fibroblasts = assay: Mammalian cell cytotoxicity screening, resazurin viability; format: cell-based, mouse
E. coli ATCC 8739 = assay: Antimicrobial activity, broth microdilution MIC/MBC; format: cell-based, Escherichia coli; settings: nd—not detected; for MIC (%): E. coli ATCC 8739, 24 h at 37 °C, at least 90% growth inhibition; for MBC (%): E. coli ATCC 8739
C. albicans ATCC 10231 = assay: as above; format: cell-based, Candida albicans; settings: C. albicans ATCC 10231, 24 h at 37 °C, at least 90% growth inhibition; nd—not detected
[1] = test system: Lepidium sativum L. seeds; settings: 24 h incubation, mean(±SD), n = 3
[2] = test system: Lepidium sativum L. roots; settings: 24 h incubation, mean(±SD), n = 3
S. aureus ATCC 6538 = assay: Antimicrobial activity, broth microdilution MIC/MBC; format: cell-based, Staphylococcus aureus; settings: nd—not detected; for MIC (%): S. aureus ATCC 6538, 24 h at 37 °C, at least 90% growth inhibition
[3] = 0.01% (w/w) compound in the medium
[4] = 0.03% (w/w) compound in the medium
[5] = 0.05% (w/w) compound in the medium
[6] = 0.10% (w/w) compound in the medium
[7] = 0.30% (w/w) compound in the medium
[8] = 0.50% (w/w) compound in the medium
[9] = 1.00% (w/w) compound in the medium
[10] = 2.00% (w/w) compound in the medium
[11] = 4.00% (w/w) compound in the medium
[12] = 3.00% (w/w) compound in the medium
[13] = 5.00% (w/w) compound in the medium

| Structure (SMILES) | MIC (%) (E. coli ATCC 8739) | MIC (%) (C. albicans ATCC 10231) | Inhibition of the Lepidium sativum seeds germination (ISG, %) [1, 3] | Inhibition of the Lepidium sativum seeds germination (ISG, %) [1, 4] | Inhibition of the Lepidium sativum seeds germination (ISG, %) [1, 5] | Inhibition of the Lepidium sativum seeds germination (ISG, %) [1, 6] | Inhibition of the Lepidium sativum seeds germination (ISG, %) [1, 7] | Inhibition of the Lepidium sativum seeds germination (ISG, %) [1, 8] | Inhibition of the Lepidium sativum seeds germination (ISG, %) [1, 9] | Inhibition of the Lepidium sativum seeds germination (ISG, %) [1, 10] | Inhibition of the Lepidium sativum seeds germination (ISG, %) [1, 11] | Inhibition of the root growth in pregerminated Lepidium sativum seeds (IRG, %) [2, 3] | Inhibition of the root growth in pregerminated Lepidium sativum seeds (IRG, %) [2, 4] | Inhibition of the root growth in pregerminated Lepidium sativum seeds (IRG, %) [2, 5] | Inhibition of the root growth in pregerminated Lepidium sativum seeds (IRG, %) [2, 7] | Inhibition of the root growth in pregerminated Lepidium sativum seeds (IRG, %) [2, 8] | Inhibition of the root growth in pregerminated Lepidium sativum seeds (IRG, %) [2, 9] | Inhibition of the root growth in pregerminated Lepidium sativum seeds (IRG, %) [2, 10] | Inhibition of the root growth in pregerminated Lepidium sativum seeds (IRG, %) [2, 12] | Inhibition of the root growth in pregerminated Lepidium sativum seeds (IRG, %) [2, 11] | other results |
| --- | --- | --- | --- | --- | --- | --- | --- | --- | --- | --- | --- | --- | --- | --- | --- | --- | --- | --- | --- | --- | --- |
| CC(O)C(N)C(=O)O.OCCN(CCO)CCO [[TEA][Thr]] | 7.50 | 3.75 | 0.0(±0.0) % | 3.8(±0.1) % | 6.7(±0.8) % | 11.3(±1.7) % | 15.1(±0.8) % | 16.8(±0.9) % | 18.9(±1.7) % | 21.7(±0.8) % | 45.3(±2.1) % | 0.0(±0.0) % | 17.7(±2.3) % | 19.7(±2.4) % | 37.8% | 66.6(±1.3) % | 73.7(±1.0) % | 80.3(±0.9) % | 88.0(±0.8) % | 92.7(±0.6) % | ED20 (L929 fibroblasts; 24h exposure): 0.40±0.09%; ED50 (L929 fibroblasts; 24h exposure): 0.57±0.03%; ED80 (L929 fibroblasts; 24h exposure): 0.73±0.14%; ED20 (L929 fibroblasts; 48h exposure): 0.26±0.03%; ED50 (L929 fibroblasts; 48h exposure): 0.38±0.02%; ED80 (L929 fibroblasts; 48h exposure): 0.50±0.03%; Inhibition of the root growth in pregerminated Lepidium sativum seeds (IRG, %) [2, 6]: 21.8(±1.9) %; Inhibition of the root growth in pregerminated Lepidium sativum seeds (IRG, %) [2, 13]: 96.2(±0.5) % |
| NCCCC[C@H](N)C(=O)O.OCCN(CCO)CCO [[TEA][Lys]] | 0.94 | 0.94 | 0.0(±0.0) % | 0.0(±0.0) % | 0.0(±0.0) % | 0.0(±0.0) % | 0.0(±0.0) % | 0.0(±0.0) % | 1.9(±0.8) % | 11.5% | 57.7(±3.1) % | 9.2(±1.9) % | 14.6(±2.1) % | 20.0(±1.9) % | 52.7(±1.7) % | 62.3(±1.2) % | 63.5(±0.9) % | 78.9(±0.8) % | 84.9(±0.8) % | 90.2(±0.6) % | ED20 (L929 fibroblasts; 24h exposure): 0.23±0.01%; ED50 (L929 fibroblasts; 24h exposure): 0.43±0.01%; ED80 (L929 fibroblasts; 24h exposure): 0.69±0.02%; ED20 (L929 fibroblasts; 48h exposure): 0.21±0.01%; ED50 (L929 fibroblasts; 48h exposure): 0.33±0.01%; ED80 (L929 fibroblasts; 48h exposure): 0.46±0.01%; MIC (%) (S. aureus ATCC 6538): 1.88%; MBC (%) (E. coli ATCC 8739): 3.75%; Inhibition of the Lepidium sativum seeds germination (ISG, %) [1, 12]: 38.5%; Inhibition of the root growth in pregerminated Lepidium sativum seeds (IRG, %) [2, 6]: 24.5(±1.9) %; Inhibition of the root growth in pregerminated Lepidium sativum seeds (IRG, %) [2, 13]: 94.9(±0.5) % |
| N=C(N)NCCC[C@H](N)C(=O)O.OCCN(CCO)CCO [[TEA][Arg]] | 3.75 | 0.94 | 0.0(±0.0) % | 0.0(±0.0) % | 0.0(±0.0) % | 0.0(±0.0) % | 1.2(±0.8) % | 5.5(±0.5) % | 15.5(±0.5) % | 25.5(±2.1) % | 58.2(±1.2) % | 9.0(±1.9) % | 20.6(±1.8) % | 31.2(±1.9) % | 53.8(±1.3) % | 56.5(±1.4) % | 65.4(±1.0) % | 74.4(±0.7) % | 84.7(±0.6) % | 93.7(±0.5) % | MIC (%) (S. aureus ATCC 6538): 3.75%; MBC (%) (S. aureus ATCC 6538; S. aureus ATCC 6538): 3.75%; MBC (%) (E. coli ATCC 8739): 3.75%; Inhibition of the Lepidium sativum seeds germination (ISG, %) [1, 12]: 32.7%; Inhibition of the root growth in pregerminated Lepidium sativum seeds (IRG, %) [2, 6]: 41.9(±1.3) %; Inhibition of the root growth in pregerminated Lepidium sativum seeds (IRG, %) [2, 13]: 98.3(±0.3) % |
| NC(CO)C(=O)O.OCCN(CCO)CCO [[TEA][Ser]] | 7.50 | 3.75 | 0.0(±0.0) % | 0.0(±0.0) % | 0.0(±0.0) % | 2.8(±1.7) % | 5.7(±1.3) % | 6.6(±0.9) % | 7.5(±1.7) % | 17.0(±0.5) % | 34.0(±2.6) % | 0.0(±0.0) % and 0% | 0.0(±0.0) % and 0% | 0.0(±0.0) % and 0% | 14.6% | 25.3% | 70.2(±0.7) % | 77.8(±0.6) % | 79.5(±0.6) % | 81.3(±0.5) % | ED20 (L929 fibroblasts; 24h exposure): 0.26±0.03%; ED50 (L929 fibroblasts; 24h exposure): 0.55±0.04%; ED80 (L929 fibroblasts; 24h exposure): 0.98±0.11%; MIC (%) (S. aureus ATCC 6538): 7.50%; MBC (%) (E. coli ATCC 8739): 7.50%; Inhibition of the root growth in pregerminated Lepidium sativum seeds (IRG, %) [2, 13]: 91.2(±0.4) % |
| NC(CCC(=O)O)C(=O)O.OCCN(CCO)CCO (centres unmarked) [[TEA][Glu]] | 7.50 | 15 | 0.0(±0.0) % | 0.0(±0.0) % | 1.8(±0.5) % | 3.6(±0.8) % | 5.4(±1.3) % | 8.9(±0.8) % | 10.7(±1.3) % | 10.7(±1.3) % | 21.4(±0.5) % | 0.0(±0.0) % and 0% | 0.0(±0.0) % and 0% | 4.0(±2.4) % | 5.8% | 21% | 36.3(±2.2) % | 44.5(±1.8) % | 61.4(±1.0) % | 79.4(±0.8) % | MIC (%) (S. aureus ATCC 6538): 15%; MBC (%) (E. coli ATCC 8739): 15%; Inhibition of the Lepidium sativum seeds germination (ISG, %) [1, 12]: 14.3%; Inhibition of the Lepidium sativum seeds germination (ISG, %) [1, 13]: 33.9%; Inhibition of the root growth in pregerminated Lepidium sativum seeds (IRG, %) [2, 6]: 4.9(±2.7) %; Inhibition of the root growth in pregerminated Lepidium sativum seeds (IRG, %) [2, 13]: 82.4(±0.5) % |
